We go through 18 molecules from patent US20240124504A1, “AROMATIC HETEROCYCLIC COMPOUND, AND PHARMACEUTICAL COMPOSITION AND APPLICATION THEREOF” (GT APEIRON THERAPEUTICS LIMITED, priority 2020, published 2024).

In assay [1] the target is CDK7/cyclinH/MAT1 complex (Homo sapiens, UniProt P50613). Put plainly: In-vitro enzymatic inhibitory activity testing, CDK7 inhibition assay (Caliper EZ Reader II). It counts as biochemical. The settings on record: CDK7/cyclinH/MAT1 6 nM, 180 min at 27° C. In outline: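 Enzyme preincubated 10 min with compound, then peptide substrate plus ATP added in 80 mM MES pH 6.5, 10 mM MgCl2 buffer; 180 min at 27 °C, stopped with EDTA.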
CDK7/cyclinH/MAT1 complex, sequence (P50613 whole entry, species assumed): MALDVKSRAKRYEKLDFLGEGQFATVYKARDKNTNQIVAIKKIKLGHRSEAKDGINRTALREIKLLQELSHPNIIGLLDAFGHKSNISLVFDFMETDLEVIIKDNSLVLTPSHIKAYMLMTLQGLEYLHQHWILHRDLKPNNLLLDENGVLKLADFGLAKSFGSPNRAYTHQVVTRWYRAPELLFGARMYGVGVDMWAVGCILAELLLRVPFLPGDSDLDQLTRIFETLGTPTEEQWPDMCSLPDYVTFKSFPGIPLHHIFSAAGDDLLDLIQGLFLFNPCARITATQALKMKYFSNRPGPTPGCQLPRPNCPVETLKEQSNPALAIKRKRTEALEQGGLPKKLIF
CDK7/cyclinH/MAT1 complex, sequence (P51946 whole entry partner, species assumed): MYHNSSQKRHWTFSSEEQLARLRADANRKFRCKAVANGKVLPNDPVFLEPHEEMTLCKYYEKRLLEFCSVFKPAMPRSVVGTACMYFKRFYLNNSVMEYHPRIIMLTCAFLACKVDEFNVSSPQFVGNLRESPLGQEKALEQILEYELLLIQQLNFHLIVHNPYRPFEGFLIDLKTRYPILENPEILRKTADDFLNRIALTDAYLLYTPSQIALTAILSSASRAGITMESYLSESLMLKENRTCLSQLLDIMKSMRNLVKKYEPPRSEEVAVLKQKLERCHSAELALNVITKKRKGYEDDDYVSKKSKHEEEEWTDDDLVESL
CDK7/cyclinH/MAT1 complex, sequence (P51948 whole entry partner, species assumed): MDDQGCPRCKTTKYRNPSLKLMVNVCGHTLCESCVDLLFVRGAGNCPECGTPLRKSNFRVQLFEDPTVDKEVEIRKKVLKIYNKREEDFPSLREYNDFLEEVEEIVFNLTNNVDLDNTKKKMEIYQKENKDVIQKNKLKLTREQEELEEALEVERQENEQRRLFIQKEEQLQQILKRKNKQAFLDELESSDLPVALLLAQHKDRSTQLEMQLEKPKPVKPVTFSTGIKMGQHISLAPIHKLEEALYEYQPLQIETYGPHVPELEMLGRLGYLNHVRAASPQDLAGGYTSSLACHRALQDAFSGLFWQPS

For assay [2], the target named is CDK2/cyclinE1 complex (Homo sapiens, UniProt P24941). Briefly: In-vitro enzymatic inhibitory activity testing, CDK2 inhibition assay (Caliper EZ Reader II). It counts as biochemical. As to conditions: CDK2/cyclinE1 0.5 nM, 180 min at 27° C. In outline: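 CDK2/cyclinE1 (0.5 nM) phosphorylated 5-FAM-CDK7tide (2 μM) in MES buffer pH 6.5 with MgCl2, Tween 20 and BSA. Substrate and product were separated electrophoretically on a Caliper EZ Reader II. IC50 values came from nonlinear dose-response fits.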

Assay [3] addresses CDK9/cyclinT1 complex (Homo sapiens, UniProt P50750). Briefly: In-vitro enzymatic inhibitory activity testing, CDK9 inhibition assay (Caliper EZ Reader II). Format: biochemical. The settings on record: CDK9/cyclinT1 8 nM, 180 min at 27° C. In outline:
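Phosphorylated and unphosphorylated fluorescent peptide were resolved by mobility-shift electrophoresis, with IC50 taken from a nonlinear regression of dose-response data. Reactions ran 180 min at 27 °C in MES buffer pH 6.5 with MgCl2, after 10 min enzyme–compound preincubation, using 8 nM CDK9/cyclinT1 and 5-FAM-CDK9tide.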

In assay [4] the target is T1, CDK12 (aa686-1082)/cyclinK complex (Homo sapiens, UniProt Q9NYV4).
T1 construct: A CDK12 (aa686-1082)/cyclinK complex (50 nM)
T1 sequence (Q9NYV4 686-1082, species assumed): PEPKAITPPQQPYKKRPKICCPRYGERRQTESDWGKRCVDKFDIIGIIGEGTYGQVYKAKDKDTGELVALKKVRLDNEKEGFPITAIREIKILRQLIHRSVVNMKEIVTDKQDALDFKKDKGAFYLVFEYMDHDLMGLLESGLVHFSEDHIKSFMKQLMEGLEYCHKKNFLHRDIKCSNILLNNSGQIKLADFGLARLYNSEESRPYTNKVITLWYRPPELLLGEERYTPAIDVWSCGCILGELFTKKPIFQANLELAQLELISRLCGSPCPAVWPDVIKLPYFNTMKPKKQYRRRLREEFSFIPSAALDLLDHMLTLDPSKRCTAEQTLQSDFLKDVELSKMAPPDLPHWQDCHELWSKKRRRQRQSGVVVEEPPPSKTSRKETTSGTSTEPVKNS
T1 sequence (O75909 whole entry partner, species assumed, the tested form may be a part): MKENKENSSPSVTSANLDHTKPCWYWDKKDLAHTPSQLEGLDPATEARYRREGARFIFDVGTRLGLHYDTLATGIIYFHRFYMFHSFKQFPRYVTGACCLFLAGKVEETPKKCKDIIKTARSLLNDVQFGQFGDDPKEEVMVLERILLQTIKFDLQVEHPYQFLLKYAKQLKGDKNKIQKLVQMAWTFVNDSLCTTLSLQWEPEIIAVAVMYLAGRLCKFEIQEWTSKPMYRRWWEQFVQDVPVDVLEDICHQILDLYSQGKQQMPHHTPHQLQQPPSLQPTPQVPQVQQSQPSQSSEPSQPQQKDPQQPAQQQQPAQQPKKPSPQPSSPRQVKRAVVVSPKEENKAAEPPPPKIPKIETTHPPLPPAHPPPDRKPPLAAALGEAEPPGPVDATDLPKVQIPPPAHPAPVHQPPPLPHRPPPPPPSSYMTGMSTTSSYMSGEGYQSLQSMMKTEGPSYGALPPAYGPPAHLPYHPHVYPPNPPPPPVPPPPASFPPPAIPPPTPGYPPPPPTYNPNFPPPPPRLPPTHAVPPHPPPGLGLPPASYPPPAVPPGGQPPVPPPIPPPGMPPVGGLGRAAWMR
Briefly: In-vitro enzymatic inhibitory activity testing, CDK12 inhibition assay (Caliper EZ Reader II). Format: biochemical. The settings on record: CDK12/cyclinK 50 nM, 180 min at 27° C.; read-out: CDK12 IC50. In outline: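 CDK12 (aa686-1082)/cyclinK complex at 50 nM was pre-incubated with compound for 10 min, then reacted 180 min at 27° C with ATP and 2 μM 5-FAM-CDK9tide in pH 6.5 MES buffer with 10 mM MgCl2. Reactions were EDTA-quenched and product resolved electrophoretically; IC50 from nonlinear curve fit.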

Assay [5] has as its system human breast cancer cells HCC70. Put plainly: Cell biological activity detection (CyQuant, 72 hours), HCC70. Format: cell-based. As to conditions: incubation for 72 hours. In outline:
(§1)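 IC50 derived from CyQuant Direct nuclear staining (488 nm excitation) after 72 h compound exposure at 37 °C, 5% CO2. Compounds tested in 9 concentrations from 10 μM, 1:4 steps, 0.2% DMSO, on A2780 or HCC70 cells plated overnight at 2000/well in RPMI 1640 + 10% FBS.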

In assay [6] the test system is ovarian cancer A2780. Put plainly: Cell biological activity detection (CyQuant, 72 hours), A2780. It counts as cell-based, human. As to conditions: A2780 cells, incubation for 72 hours. In outline: as §1

pIC50: −log10 of the molar value.

CDK9/cyclinT1 complex, sequence (P50750 whole entry, species assumed): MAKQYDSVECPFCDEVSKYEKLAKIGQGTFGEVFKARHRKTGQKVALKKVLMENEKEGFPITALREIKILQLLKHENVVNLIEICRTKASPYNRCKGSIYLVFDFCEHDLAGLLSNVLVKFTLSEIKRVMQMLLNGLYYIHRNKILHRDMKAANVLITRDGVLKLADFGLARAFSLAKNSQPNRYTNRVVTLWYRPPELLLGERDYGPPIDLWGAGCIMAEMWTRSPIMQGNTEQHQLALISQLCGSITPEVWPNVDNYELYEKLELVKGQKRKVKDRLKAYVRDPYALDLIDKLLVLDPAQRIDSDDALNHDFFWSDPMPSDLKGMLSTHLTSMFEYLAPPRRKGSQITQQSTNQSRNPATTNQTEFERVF
CDK9/cyclinT1 complex, sequence (O60563 whole entry partner, species assumed): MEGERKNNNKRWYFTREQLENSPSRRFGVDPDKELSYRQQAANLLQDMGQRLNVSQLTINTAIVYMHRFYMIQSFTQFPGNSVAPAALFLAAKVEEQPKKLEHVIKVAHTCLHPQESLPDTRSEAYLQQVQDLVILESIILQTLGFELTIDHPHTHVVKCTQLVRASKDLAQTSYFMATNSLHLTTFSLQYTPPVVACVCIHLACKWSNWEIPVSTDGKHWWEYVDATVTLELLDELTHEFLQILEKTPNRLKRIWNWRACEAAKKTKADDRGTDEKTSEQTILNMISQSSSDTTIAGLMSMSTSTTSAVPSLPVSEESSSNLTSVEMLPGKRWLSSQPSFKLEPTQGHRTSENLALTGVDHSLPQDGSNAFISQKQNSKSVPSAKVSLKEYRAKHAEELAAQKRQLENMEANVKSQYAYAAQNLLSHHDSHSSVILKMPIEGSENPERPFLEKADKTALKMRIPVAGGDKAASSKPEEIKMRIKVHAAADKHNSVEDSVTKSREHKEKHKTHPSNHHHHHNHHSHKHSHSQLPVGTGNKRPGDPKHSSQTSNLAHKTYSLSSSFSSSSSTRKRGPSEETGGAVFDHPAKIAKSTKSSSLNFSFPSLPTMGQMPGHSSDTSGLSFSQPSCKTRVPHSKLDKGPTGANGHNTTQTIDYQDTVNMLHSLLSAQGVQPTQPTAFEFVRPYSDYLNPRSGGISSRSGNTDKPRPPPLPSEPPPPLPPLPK

Take `FC(F)(F)c1cnc(NC2CCC3(CCNC3)C2)nc1-c1c[nH]c2nc(N3CCOCC3)ccc12` (stereo not drawn) [Compound 40, N-(4-(6-morpholinyl-1H-pyrrolo[2,3-b]pyridin-3-yl)-5-(trifluoromethyl)pyrimidin-2-yl)-2-azaspiro[4.4]non-7-amine]: the pIC50 in assay [1] is 6.70 to 7.70; in assay [2] it was 4.30 to 5.30; in assay [3] it was 4.30 to 5.30; in assay [4] it was 4.30 to 5.30; in assay [5] (Homo sapiens, HCC70, 72 h), 5.30 to 6.70; in assay [6] (Homo sapiens, A2780, 72 h) it was 6.70 to 7.70.
Consider `FC(F)(F)c1cnc(N[C@H]2CCCNC2)nc1-c1c[nH]c2cc(N3CCCC3)ccc12` [Compound 101, (S)—N-(piperidin-3-yl)-4-(6-(pyrrolidin-1-yl)-1H-indole-3-yl)-5-(trifluoromethyl)pyrimidin-2-amine, reference compound], for which the pIC50 in assay [1] is 6.70 to 7.70; in assay [2], 4.30 to 5.30; in assay [3] it was 5.30 to 6.70; in assay [4] it was 5.30 to 6.70; in assay [5] (Homo sapiens, HCC70, 72 h), 5.30 to 6.70; in assay [6] (Homo sapiens, A2780, 72 h) it was 6.70 to 7.70.
For `FC(F)(F)c1cnc(NC2CCC23CNC3)nc1-c1c[nH]c2nc(N3CCOCC3)ccc12` (stereo not drawn) [Compound 39, N-(4-(6-morpholinyl-1H-pyrrolo[2,3-b]pyridin-3-yl)-5-(trifluoromethyl)pyrimidin-2-yl)-2-azaspiro[3.3]heptan-5-amine], the pIC50 was greater than 7.70 in assay [1]; 4.30 to 5.30 in assay [2]; 4.30 to 5.30 in assay [3]; 4.30 to 5.30 in assay [4]; 6.70 to 7.70 in assay [5] (Homo sapiens, HCC70, 72 h); 6.70 to 7.70 in assay [6] (Homo sapiens, A2780, 72 h).
As for `CP(C)(=O)c1cccc2c(-c3nc(N[C@H]4CC[C@H](N)C4)ncc3C(F)(F)F)c[nH]c12` [Compound 81], the pIC50 in assay [1] is greater than 7.70; in assay [2], 5.30 to 6.70; in assay [3] it was 5.30 to 6.70; in assay [4], 5.30 to 6.70; in assay [5] (Homo sapiens, HCC70, 72 h), greater than 7.70; in assay [6] (Homo sapiens, A2780, 72 h) it was greater than 7.70.
For `FC(F)(F)c1cnc(NC2COC3(CCNCC3)C2)nc1-c1c[nH]c2nc(N3CCOCC3)ccc12` (stereo not drawn) [Compound 51, N-(4-(6-morpholinyl-1H-pyrrolo[2,3-b]pyridin-3-yl)-5-(trifluoromethyl)pyrimidin-2-yl)-1-oxa-8-azaspiro[4.5]decan-3-amine], the pIC50 is 5.30 to 6.70 in assay [1]; 4.30 to 5.30 in assay [2]; 4.30 to 5.30 in assay [3]; 4.30 to 5.30 in assay [4]; 5.30 to 6.70 in assay [5] (Homo sapiens, HCC70, 72 h); 5.30 to 6.70 in assay [6] (Homo sapiens, A2780, 72 h).
For `Cc1noc(C)c1-c1ccc2c(-c3nc(NC4CCC5(CCNC5)C4)ncc3C(F)(F)F)c[nH]c2n1` (stereo not drawn) [Compound 35, N-(4-(6-(3,5-dimethylisoxazol-4-yl)-1H-pyrrolo[2,3-b]pyridin-3-yl)-5-(trifluoromethyl)pyrimidin-2-yl)-2-azaspiro[4.4]non-7-amine], the pIC50 in assay [1] is greater than 7.70; in assay [2], 5.30 to 6.70; in assay [3] it was 5.30 to 6.70; in assay [4] it was 5.30 to 6.70; in assay [5] (Homo sapiens, HCC70, 72 h), 6.70 to 7.70; in assay [6] (Homo sapiens, A2780, 72 h) it was 6.70 to 7.70.
With `CP(C)(=O)c1cccc2c(-c3nc(NCC(O)C(F)(F)F)ncc3C(F)(F)F)c[nH]c12` (single isomer, unassigned) [Compound 147], the pIC50 in assay [1] is 6.70 to 7.70; in assay [2] it was less than 4.30; in assay [3], less than 4.30; in assay [4] it was less than 4.30; in assay [5], 5.30 to 6.70; in assay [6], 6.70 to 7.70.
Take `CC[C@](C)(CO)Nc1ncc(C(F)(F)F)c(-c2c[nH]c3c(P(C)(C)=O)cccc23)n1` [Compound 161, (R)-(3-(2-((1-hydroxy-2-methylbutan-2-yl)amino)-5-(trifluoromethyl)pyrimidin-4-yl)-1H-indole-7-yl)dimethylphosphine oxide]: the pIC50 in assay [1] was greater than 7.70; in assay [2] it was 4.30 to 5.30; in assay [3] it was less than 4.30; in assay [4] it was less than 4.30; in assay [5] (Homo sapiens, HCC70, 72 h), 5.30 to 6.70; in assay [6] (Homo sapiens, A2780, 72 h), 5.30 to 6.70.
Take `CC1(C)COCC(Nc2ncc(C(F)(F)F)c(-c3c[nH]c4nc(C#N)ccc34)n2)CN1` (stereo not drawn) [Compound 62, 3-(2-((3,3-dimethyl-1,4-oxazepan-6-yl)amino)-5-(trifluoromethyl)pyrimidin-4-yl)-1H-pyrrolo[2,3-b]pyridine-6-carbonitrile]: the pIC50 in assay [1] was 6.70 to 7.70; in assay [2], less than 4.30; in assay [3], less than 4.30; in assay [4] it was 4.30 to 5.30; in assay [5] (Homo sapiens, HCC70, 72 h), 5.30 to 6.70; in assay [6] (Homo sapiens, A2780, 72 h), 5.30 to 6.70.
Take `CP(C)(=O)c1cccc2c(-c3nc(NC4(CO)CCCC4)ncc3C(F)(F)F)c[nH]c12` [Compound 116, (3-(2-((1-(hydroxymethyl)cyclopentyl)amino)-5-(trifluoromethyl)pyrimidin-4-yl)-1H-indole-7-yl)dimethylphosphine oxide]: the pIC50 in assay [1] is 6.70 to 7.70; in assay [2], 4.30 to 5.30; in assay [3] it was less than 4.30; in assay [4], less than 4.30; in assay [5] (Homo sapiens, HCC70, 72 h), 6.70 to 7.70; in assay [6] (Homo sapiens, A2780, 72 h), 6.70 to 7.70.
In the case of `CP(C)(=O)c1cccc2c(-c3nc(NCC(O)C(F)(F)F)ncc3C(F)(F)F)c[nH]c12` (single isomer, unassigned) [Compound 146], the pIC50 was greater than 7.70 in assay [1]; 4.30 to 5.30 in assay [2]; less than 4.30 in assay [3]; less than 4.30 in assay [4]; 6.70 to 7.70 in assay [5]; 6.70 to 7.70 in assay [6] (Homo sapiens, A2780, 72 h).
Take `CC1(C)COC[C@@H](Nc2ncc(C(F)(F)F)c(-c3c[nH]c4nc(C#N)ccc34)n2)CN1` (single isomer, unassigned) [Compound 64]: the negative-log IC50 (pIC50) is 6.70 to 7.70 in assay [1]; less than 4.30 in assay [2]; less than 4.30 in assay [3]; 4.30 to 5.30 in assay [4]; 5.30 to 6.70 in assay [5] (Homo sapiens, HCC70, 72 h); 5.30 to 6.70 in assay [6] (Homo sapiens, A2780, 72 h).
Take `FC(F)(F)c1cnc(NC2CCC23CCNC3)nc1-c1c[nH]c2nc(N3CCOCC3)ccc12` (stereo not drawn) [Compound 37, N-(4-(6-morpholinyl-1H-pyrrolo[2,3-b]pyridin-3-yl)-5-(trifluoromethyl)pyrimidin-2-yl)-6-azaspiro[3.4]octan-1-amine]: the pIC50 in assay [1] is 6.70 to 7.70; in assay [2] it was 4.30 to 5.30; in assay [3], 4.30 to 5.30; in assay [4], 4.30 to 5.30; in assay [5] (Homo sapiens, HCC70, 72 h), 5.30 to 6.70; in assay [6] (Homo sapiens, A2780, 72 h), 5.30 to 6.70.
For the molecule `FC(F)(F)c1cnc(NC2COC23CNC3)nc1-c1c[nH]c2nc(N3CCOCC3)ccc12` (stereo not drawn) [Compound 58, N-(4-(6-morpholinyl-1H-pyrrolo[2,3-b]pyridin-3-yl)-5-(trifluoromethyl)pyrimidin-2-yl)-1-oxa-6-azaspiro[3.3]heptan-3-amine], the pIC50 was 6.70 to 7.70 in assay [1]; 4.30 to 5.30 in assay [2]; less than 4.30 in assay [3]; less than 4.30 in assay [4]; 6.70 to 7.70 in assay [5] (Homo sapiens, HCC70, 72 h); 5.30 to 6.70 in assay [6] (Homo sapiens, A2780, 72 h).
For `CP(C)(=O)c1cccc2c(-c3nc(NC4CCC5(CCNC5)C4)ncc3C(F)(F)F)c[nH]c12` (single isomer, unassigned) [Compound 100], the pIC50 in assay [1] was greater than 7.70; in assay [2], 5.30 to 6.70; in assay [3], 4.30 to 5.30; in assay [4], 5.30 to 6.70; in assay [5], greater than 7.70; in assay [6], greater than 7.70.
Take `FC(F)(F)c1cnc(NCC2CCNC2)nc1-c1c[nH]c2nc(N3CCOCC3)ccc12` (stereo not drawn) [Compound 52, 4-(6-morpholinyl-1H-pyrrolo[2,3-b]pyridin-3-yl)-N-(pyrrolidin-3-ylmethyl)-5-(trifluoromethyl)pyrimidin-2-amine]: the pIC50 in assay [1] was 6.70 to 7.70; in assay [2], 4.30 to 5.30; in assay [3], 4.30 to 5.30; in assay [4], 4.30 to 5.30; in assay [5] (Homo sapiens, HCC70, 72 h), 5.30 to 6.70; in assay [6] (Homo sapiens, A2780, 72 h), 5.30 to 6.70.
Regarding `FC(F)(F)c1cnc(NC2CCCNCC2)nc1-c1c[nH]c2nc(N3CCOCC3)ccc12` (single isomer, unassigned) [Compound 49], the pIC50 is 5.30 to 6.70 in assay [1]; 4.30 to 5.30 in assay [2]; less than 4.30 in assay [3]; 4.30 to 5.30 in assay [4]; 5.30 to 6.70 in assay [5]; 5.30 to 6.70 in assay [6].
`C[C@H](Nc1ncc(C(F)(F)F)c(-c2c[nH]c3c(P(C)(C)=O)cccc23)n1)C(C)(C)O` [Compound 163, (S)-(3-(2-((3-hydroxy-3-methylbutan-2-yl)amino)-5-(trifluoromethyl)pyrimidin-4-yl)-1H-indole-7-yl)dimethylphosphine oxide]: the pIC50 in assay [1] is 6.70 to 7.70; in assay [2], 4.30 to 5.30; in assay [3] it was less than 4.30; in assay [4], less than 4.30; in assay [5] (Homo sapiens, HCC70, 72 h), 5.30 to 6.70; in assay [6] (Homo sapiens, A2780, 72 h) it was 6.70 to 7.70.

One may read the pIC50 as the IC50 on a negative log10 scale, so that one unit is a factor of ten.
